Results as given in patent US10093623B2, “Cyclic amides as MetAP-2 inhibitors” (MERCK PATENT GmbH, priority 2012, dated 2018).

molecular target: MetAP-2 (Homo sapiens, UniProt P50579); assay: MetAP-2 activity measurement (coupled enzymatic reactions, Met-Arg-Ser substrate, dianisidine detection at 450 nm); format: biochemical; conditions: Inhibition of MetAP-2; read-out: IC50 enzyme
Procedure, shortened: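 Rate read from the linear part of the 450 nm absorbance trace. Dianisidine oxidation by peroxidase reports H2O2 made when amino acid oxidase acts on methionine cleaved from MAS tripeptide, one mol dye per mol Met; extinction coefficient gives molar activity.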

MetAP-2, sequence (P50579 whole entry, species assumed): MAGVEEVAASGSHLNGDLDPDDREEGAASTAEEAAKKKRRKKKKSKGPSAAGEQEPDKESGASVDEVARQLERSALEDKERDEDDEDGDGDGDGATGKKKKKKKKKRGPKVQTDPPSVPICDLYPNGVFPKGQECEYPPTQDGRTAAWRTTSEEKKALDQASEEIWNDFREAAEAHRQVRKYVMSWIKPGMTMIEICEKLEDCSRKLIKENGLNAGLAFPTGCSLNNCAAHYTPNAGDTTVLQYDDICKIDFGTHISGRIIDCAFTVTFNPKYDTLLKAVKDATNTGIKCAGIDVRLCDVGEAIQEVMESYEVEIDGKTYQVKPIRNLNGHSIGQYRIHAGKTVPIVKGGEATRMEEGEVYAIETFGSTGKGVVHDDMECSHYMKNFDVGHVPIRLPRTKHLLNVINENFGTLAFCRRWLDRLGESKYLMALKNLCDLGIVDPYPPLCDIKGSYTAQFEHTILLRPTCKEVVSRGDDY

| SMILES | IC50 [nM] |
| --- | --- |
| NC(=O)c1c[nH]c2ccc(N3CC[C@](O)(C(=O)NCc4cc(F)cc(Cl)c4)C3=O)cc12 [A238, 5-[(S)-3-(3-Chloro-5-fluorobenzylcarbamoyl)-3-hydroxy-2-oxopyrrolidin-1-yl]-1H-indole-3-carboxamide] | 10 to 1000 |
| O=C1CCc2cc(N3CC[C@](O)(C(=O)NCc4ccc(Cl)cc4F)C3=O)ccc2N1 [A241, N-(4-Chloro-2-fluorobenzyl)-(S)-3-hydroxy-2-oxo-1-(2-oxo-1,2,3,4-tetrahydroquinolin-6-yl)-pyrrolidine-3-carboxamide] | 10 to 1000 |
| O=C1CCc2cc(N3CC[C@](O)(C(=O)NCc4ccc(F)cc4Cl)C3=O)ccc2N1 [A242, N-(2-Chloro-4-fluorobenzyl)-(S)-3-hydroxy-2-oxo-1-(2-oxo-1,2,3,4-tetrahydroquinolin-6-yl)-pyrrolidine-3-carboxamide] | 10 to 1000 |
| NC(=O)CN1CCC(O)(C(=O)NCc2cc(F)cc(Cl)c2)C1=O (stereo not shown) [A248, N-(3-Chloro-5-fluorobenzyl)-1-carbamoylmethyl-3-hydroxy-2-oxopyrrolidine-3-carboxamide] | 1000 to 10000 |
| O=C(NCc1cc(F)cc(F)c1)C1(O)CCCN(CC2CCC2)C1=O (stereo not shown) [A252, N-(3,5-Difluorobenzyl)-1-cyclobutylmethyl-3-hydroxy-2-oxopiperidine-3-carboxamide] | 1000 to 10000 |
| O=C(NCc1cccc(F)c1)C1(O)CCCN(Cc2ccc(F)c(F)c2)C1=O (stereo not shown) [A253, N-(3-Fluorobenzyl)-1-(3,4-difluorobenzyl)-3-hydroxy-2-oxo-piperidine-3-carboxamide] | 1000 to 10000 |
| O=C(NCc1ccc(F)cc1)[C@@]1(O)CCCN(Cc2cccc(F)c2F)C1=O [A255, N-(4-Fluorobenzyl)-(S)-1-(2,3-difluorobenzyl)-3-hydroxy-2-oxo-piperidine-3-carboxamide] | 1000 to 10000 |
| O=C(NCc1ccccn1)[C@@]1(O)CCCN(Cc2cccc(F)c2F)C1=O [A259, N-(Pyridin-2-ylmethyl)-(S)-1-(2,3-difluorobenzyl)-3-hydroxy-2-oxopiperidine-3-carboxamide] | > 10000 |
| O=C(NCc1ccccn1)[C@]1(O)CCCN(Cc2cccc(F)c2F)C1=O [A260, N-(Pyridin-2-ylmethyl)-(R)-1-(2,3-difluorobenzyl)-3-hydroxy-2-oxopiperidine-3-carboxamide] | > 10000 |
| O=C(NCc1cccc(F)c1)[C@]1(O)CCCN(Cc2cccc(F)c2F)C1=O [A261, N-(3-Fluorobenzyl)-(R)-1-(2,3-difluorobenzyl)-3-hydroxy-2-oxo-piperidine-3-carboxamide] | > 10000 |
| O=C(NCc1ccc(F)cc1)[C@]1(O)CCCN(Cc2cccc(F)c2F)C1=O [A262, N-(4-Fluorobenzyl)-(R)-1-(2,3-difluorobenzyl)-3-hydroxy-2-oxo-piperidine-3-carboxamide] | > 10000 |
| O=C1CCc2cc(N3CC[C@](O)(C(=O)NCc4ccc(Cl)c(F)c4)C3=O)ccc2N1 [A265, N-(4-Chloro-3-fluorobenzyl)-(S)-3-hydroxy-2-oxo-1-(2-oxo-1,2,3,4-tetrahydroquinolin-6-yl)-pyrrolidine-3-carboxamide] | 1000 to 10000 |
| O=C(N1Cc2ccccc2C1)C1(O)CCN(c2ccccc2)C1=O (stereo not shown) [A267, 3-(1,3-dihydroisoindole-2-carbonyl)-3-hydroxy-1-phenylpyrrolidin-2-one] | 1000 to 10000 |
| O=C1N(Cc2ccccc2)CCC1(O)C(=O)N1Cc2ccccc2C1 (stereo not shown) [A268, 1-benzyl-3-(1,3-dihydroisoindole-2-carbonyl)-3-hydroxypyrrolidin-2-one] | > 10000 |
| O=C(NCc1cc(F)cc(Cl)c1)C1(O)CCN(Cc2nc3ccccc3[nH]2)C1=O (stereo not shown) [A269, N-(3-chloro-5-fluorobenzyl)-1-(1H-benzimidazol-2-ylmethyl)-3-hydroxy-2-oxopyrrolidine-3-carboxamide] | 1000 to 10000 |
| O=C(NCc1cc(F)cc(Cl)c1)C1(O)CCN(Cc2nc3ccccc3s2)C1=O (stereo not shown) [A270, N-(3-Chloro-5-fluorobenzyl)-1-benzothiazol-2-ylmethyl-3-hydroxy-2-oxopyrrolidine-3-carboxamide] | 10 to 1000 |
| Cn1cncc1CN1CCC(O)(C(=O)NCc2cc(F)cc(Cl)c2)C1=O (stereo not shown) [A272, N-(3-Chloro-5-fluorobenzyl)-3-hydroxy-1-(3-methyl-3H-imidazol-4-ylmethyl)-2-oxo-pyrrolidine-3-carboxamide] | 1000 to 10000 |

Next, values leading:

| IC50 [nM] | SMILES |
| --- | --- |
| 10 to 1000 | O=C1CCc2cc(N3CC[C@](O)(C(=O)NCc4c(F)ccc(F)c4Cl)C3=O)ccc2N1 [A244, N-(2-Chloro-3,6-difluorobenzyl)-(S)-3-hydroxy-2-oxo-1-(2-oxo-1,2,3,4-tetrahydroquinolin-6-yl)-pyrrolidine-3-carboxamide] |
| 10 to 1000 | O=C1CCc2cc(N3CC[C@](O)(C(=O)NCc4cc(F)c(F)cc4F)C3=O)ccc2N1 [A245, N-(2,4,5-Trifluorobenzyl)-(S)-3-hydroxy-2-oxo-1-(2-oxo-1,2,3,4-tetrahydroquinolin-6-yl)-pyrrolidine-3-carboxamide] |
| 10 to 1000 | O=C1CCc2cc(N3CC[C@](O)(C(=O)NCc4ccc(F)c(Cl)c4)C3=O)ccc2N1 [A247, N-(3-Chloro-4-fluorobenzyl)-(S)-3-hydroxy-2-oxo-1-(2-oxo-1,2,3,4-tetrahydroquinolin-6-yl)-pyrrolidine-3-carboxamide] |
| 10 to 1000 | O=C1CCc2cc(N3CC[C@](O)(C(=O)NCc4c(F)cc(Cl)cc4F)C3=O)ccc2N1 [A249, N-(4-Chloro-2,6-difluorobenzyl)-(S)-3-hydroxy-2-oxo-1-(2-oxo-1,2,3,4-tetrahydroquinolin-6-yl)-pyrrolidine-3-carboxamide] |
| 10 to 1000 | O=C1CCc2cc(N3CC[C@](O)(C(=O)NCc4c(F)ccc(Cl)c4F)C3=O)ccc2N1 [A250, N-(3-Chloro-2,6-difluorobenzyl)-(S)-3-hydroxy-2-oxo-1-(2-oxo-1,2,3,4-tetrahydroquinolin-6-yl)-pyrrolidine-3-carboxamide] |
| 10 to 1000 | O=C(NCc1cccc(F)c1)[C@@]1(O)CCCN(Cc2cccc(F)c2F)C1=O [A254, N-(3-Fluorobenzyl)-(S)-1-(2,3-difluorobenzyl)-3-hydroxy-2-oxo-piperidine-3-carboxamide] |
| 10 to 1000 | O=C(NCc1cccc(F)c1)[C@@]1(O)CCCN(CC2CCCCC2)C1=O [A256, N-(3-fluorobenzyl)-(S)-1-cyclohexylmethyl-3-hydroxy-2-oxopiperidine-3-carboxamide] |
| 1000 to 10000 | O=C(NCc1ccc(F)cc1)C1(O)CCCN(Cc2ccc(F)c(F)c2)C1=O (stereo not shown) [A257, N-(4-Fluorobenzyl)-1-(3,4-difluorobenzyl)-3-hydroxy-2-oxo-piperidine-3-carboxamide] |
| > 10000 | Cc1cc(CNC(=O)C2(O)CCCN(Cc3ccc(F)c(F)c3)C2=O)no1 (stereo not shown) [A258, N-(5-Methylisoxazol-3-ylmethyl)-1-(3,4-difluorobenzyl)-3-hydroxy-2-oxopiperidine-3-carboxamide] |
| > 10000 | O=C(NCc1cccc(F)c1)[C@]1(O)CCCN(CC2CCCCC2)C1=O [A263, N-(3-fluorobenzyl)-(R)-1-cyclohexylmethyl-3-hydroxy-2-oxopiperidine-3-carboxamide] |
| > 10000 | O=C(O)CCN1CCC(O)(C(=O)NCc2cc(F)cc(Cl)c2)C1=O (stereo not shown) [A271, 3-[3-(3-Chloro-5-fluorobenzylcarbamoyl)-3-hydroxy-2-oxopyrrolidin-1-yl]-propionic acid] |
